Structures can show the parent of a compound that is named as a salt. Where two headings read alike, the source gives them in different places.
What was measured:
[1] = Dynamic solubility test in water, SGF, FeSSIF, FaSSIF; format: physicochemical; details: for pH in clear solution: dihydrochloride
Experimental: The dynamic solubility of a free base, polymorph forms B, P, F, J and O in water or a biological medium such as Stimulated Gastric Fluid (SGF), Fed State Simulated Intestinal Fluid (FeSSIF) or Fasted State Simulated Intestinal Fluid (FaSSIF) is determined.
0.2 g sodium chloride and 0.1 g Triton X-100 is weighed and placed into a 100 mL volumetric flask. Purified water is added to dissolve. A stir is performed until the solid is completely dissolved. About 135 μL concentrated hydrochloric acid solution (37%, […]) is added, then the pH is adjusted to 1.8 with […] hydrochloric acid or 1 mmoL/L sodium hydroxide. Finally, the volume is fixed with purified water to obtain Stimulated Gastric Fluid (SGF) for later use.
Each of 0.41 mL glacial acetic acid, 0.20 g sodium hydroxide and 0.59 g sodium chloride is weighed and placed to a 50 mL volumetric flask. About 48 mL purified water is added to dissolve, the pH is adjusted to 5.0 with 1 mmoL/L hydrochloric acid or 1 mmoL/L sodium hydroxide, and the volume is fixed with purified water. Then 0.56 g of Simulated Intestinal Fluid powder (SIF powder for short, which is composed of […] with a molar ratio of 4:1) is added, stirred and ultrasonically dissolved to obtain Fed State Simulated Intestinal Fluid (FeSSIF) for later use.
Each of 0.17 g of anhydrous sodium dihydrogen phosphate (NaH2PO4), 0.021 g of sodium hydroxide and 0.31 g of sodium chloride is weighed and placed into a 50 mL volumetric flask. About 48 mL of purified water is added to dissolve, the pH is adjusted to 6.5 with 1 mmoL/L hydrochloric acid or 1 mmoL/L sodium hydroxide, and the volume is fixed with purified water. 0.11 g of SIF powder is added, stirred and ultrasonically dissolved to obtain Fasted State Simulated Intestinal Fluid (FaSSIF) for later use.
Each 30 mg of the free base, and polymorph forms B, P, F, J and O are weighed. 3 mL of purified water, Stimulated Gastric Fluid (SGF), Fed State Simulated Intestinal Fluid (FeSSIF) or Fasted State Simulated Intestinal Fluid (FaSSIF)) is added and oscillated at room temperature. 0.6 mL of suspension is taken each time at a set time point, filtered and separated with a 0.45 μm nylon filter membrane, then XRPD characterization is performed on the solid sample, and the concentration in the clear solution is measured by HPLC.

[2] = Stability test: physical stability by XRPD under four environmental conditions; format: physicochemical; details: for Crystal form, after nitrogen purging at 60° C. for 2 h / Crystal form, after 40° C./75% RH for one week / Crystal form, after drying at 60 ° C. overnight / Crystal form, after nitrogen purging overnight at room: XRPD; for Crystal form, after nitrogen purging at 60° C. for 2 h / Crystal form, after drying at 60 ° C. overnight / Crystal form, after nitrogen purging overnight at room: dihydrochloride; for Physical stability after standing under the four conditions: conditions 1 to 4; for Crystal form, after 40° C./75% RH for one week / Crystal form, after drying at 60 ° C. overnight: open bottle; for Crystal form, after nitrogen purging overnight at room: room temperature
Experimental: The physical stability of polymorph forms P, F and J are studied under the following four different environmental conditions.
10 mg to 15 mg of polymorph forms P, F and J are each weighed and placed in a 1.5 mL glass bottle, and the glass bottle is placed open for one week in a constant temperature and humidity box under the conditions of 40° C. and 75% RH, and then XRPD tests are carried out on the polymorph forms P, F and J to determine whether the crystal forms of the samples change. FIGS. 11 to 13 are XRPD comparative patterns of polymorph forms P, F and J before and after one week of storage at 40° C. and 75% RH, respectively.
10 mg to 15 mg of polymorph forms P, F and J are each weighed and placed in a 1.5 mL glass bottle, and the glass bottle is placed open overnight in a constant temperature drying oven under the condition of 60° C. Then XRPD test is carried out on the polymorph forms P, F and J to determine whether the crystal forms of the samples change. FIGS. 14 to 16 are XRPD comparative patterns of the polymorph forms P, F and J before and after being placed overnight under a drying condition of 60° C., respectively.
10 mg to 15 mg of polymorph forms P, F and J are each weighed and placed in a 1.5 mL glass bottle, and nitrogen is purged for 2 h under the condition of 60° C. in a nitrogen blower, and then XRPD tests are carried out on the polymorph forms P, F and J to determine whether the crystal forms of the samples change. FIGS. 17 to 19 are XRPD comparative patterns of the polymorph forms P, F and J before and after nitrogen purging for 2 h at 60° C., respectively.
10 mg to 15 mg of polymorph forms P, F and J are each weighed and placed in a 3 mL glass bottle, nitrogen is blown overnight at room temperature in a nitrogen blower, and then XRPD tests are carried out on the polymorph forms P, F and J to determine whether the crystal forms of the samples change. FIGS. 20 to 22 are XRPD comparative patterns of the polymorph forms P, F and J before and after nitrogen purging overnight at room temperature, respectively.
Judging from XRPD comparative patterns of various polymorph forms, the physical stability properties of the polymorph forms P, F and J are obtained, and the results are shown in Table 8.

| SMILES | solubility compared with the free base [1] | pH in clear solution ([1]; FaSSIF, Time 1) | pH in clear solution ([1]; FaSSIF, Time 2) | pH in clear solution ([1]; FaSSIF, Time 4) | pH in clear solution ([1]; FaSSIF, Time 24) | pH in clear solution ([1]; FeSSIF, Time 1) | pH in clear solution ([1]; FeSSIF, Time 2) | pH in clear solution ([1]; FeSSIF, Time 4) | pH in clear solution ([1]; FeSSIF, Time 24) | pH in clear solution ([1]; SGF, Time 1) | pH in clear solution ([1]; SGF, Time 2) | pH in clear solution ([1]; SGF, Time 4) | pH in clear solution ([1]; SGF, Time 24) | pH in clear solution ([1]; Water, Time 1) | pH in clear solution ([1]; Water, Time 2) | pH in clear solution ([1]; Water, Time 4) | pH in clear solution ([1]; Water, Time 24) | solubility compared with the free base ([1]; pH 1.8) | Crystal form, after nitrogen purging at 60° C. for 2 h [2] | Crystal form, after 40° C./75% RH for one week [2] | also measured |
| --- | --- | --- | --- | --- | --- | --- | --- | --- | --- | --- | --- | --- | --- | --- | --- | --- | --- | --- | --- | --- | --- |
| CC1CCN(C(=O)c2ccc([C@H](c3cccc(O)c3)N3C[C@@H](C)N(Cc4cccc(F)c4)C[C@@H]3C)cc2)CC1 [Polymorph form B, (4-((R)-((2S,5R)-4-(3-fluorobenzyl)-(2,5-dimethylpiperazine-1-yl)(3-hydroxyphenyl)methyl)phenyl)(4-methylpiperidine-1-yl)methanone dihydrochloride] | significantly improved | 2.5 | 2.6 | 2.5 | 2.3 | 4.8 | 4.8 | 4.8 | 4.6 | 1.5 | 1.5 | 1.5 | 1.5 | 1.8 | 1.8 | 1.8 | 1.7 | close to or slightly improved |  |  |  |
| CC1CCN(C(=O)c2ccc([C@H](c3cccc(O)c3)N3C[C@@H](C)N(Cc4cccc(F)c4)C[C@@H]3C)cc2)CC1 [Polymorph form P, (4-((R)-((2S,5R)-4-(3-fluorobenzyl)-(2,5-dimethylpiperazine-1-yl)(3-hydroxyphenyl)methyl)phenyl)(4-methylpiperidine-1-yl)methanone dihydrochloride] | significantly improved | 3.0 | 2.7 | 2.2 | 2.6 | 5.0 | 4.9 | 5.0 | 4.6 | 1.6 | 1.7 | 1.6 | 1.5 | 1.9 | 1.9 | 1.9 | 1.6 | close to or slightly improved | invariability | invariability | Physical stability after standing under the four conditions [2]: good stability; Crystal form, after drying at 60 ° C. overnight [2]: invariability; Crystal form, after nitrogen purging overnight at room [2]: invariability; Crystal form of insoluble solid sample ([1]; pH 1.8): invariability; Solubility ([1]; pH 1.8, simulated gastric fluid, thermodynamic from solid, Solubility): 3.4 mg/mL; Crystal form of insoluble solid sample ([1]; pH 5): invariability; Solubility ([1]; pH 5, fessif, thermodynamic from solid, Solubility): 0.43 mg/mL; Crystal form of insoluble solid sample ([1]; pH 6.5): invariability |
| CC1CCN(C(=O)c2ccc([C@H](c3cccc(O)c3)N3C[C@@H](C)N(Cc4cccc(F)c4)C[C@@H]3C)cc2)CC1 [Polymorph form F, (4-((R)-((2S,5R)-4-(3-fluorobenzyl)-(2,5-dimethylpiperazine-1-yl)(3-hydroxyphenyl)methyl)phenyl)(4-methylpiperidine-1-yl)methanone dihydrochloride] | significantly improved | 3.5 | 4.6 | 4.2 | 4.5 | 4.8 | 4.9 | 4.9 | 4.9 | 1.6 | 1.6 | 1.6 | 1.4 | 1.8 | 1.9 | 1.8 | 1.5 | close to or slightly improved | invariability | invariability | Physical stability after standing under the four conditions [2]: good stability; Crystal form, after drying at 60 ° C. overnight [2]: invariability; Crystal form, after nitrogen purging overnight at room [2]: invariability; Crystal form of insoluble solid sample ([1]; pH 1.8): invariability; Crystal form of insoluble solid sample ([1]; pH 5): invariability; Crystal form of insoluble solid sample ([1]; pH 6.5): invariability |
| CC1CCN(C(=O)c2ccc([C@H](c3cccc(O)c3)N3C[C@@H](C)N(Cc4cccc(F)c4)C[C@@H]3C)cc2)CC1 [Polymorph form J, (4-((R)-((2S,5R)-4-(3-fluorobenzyl)-(2,5-dimethylpiperazine-1-yl)(3-hydroxyphenyl)methyl)phenyl)(4-methylpiperidine-1-yl)methanone dihydrochloride] | significantly improved | 2.8 | 3.0 | 2.8 | 2.6 | 4.8 | 5.0 | 4.9 | 4.7 | 1.7 | 1.5 | 1.5 | 1.6 | 1.8 | 1.7 | 1.7 | 1.4 | close to or slightly improved |  | invariability | Crystal form of insoluble solid sample [1]: amorphism |
| CC1CCN(C(=O)c2ccc([C@H](c3cccc(O)c3)N3C[C@@H](C)N(Cc4cccc(F)c4)C[C@@H]3C)cc2)CC1 [Polymorph form O, (4-((R)-((2S,5R)-4-(3-fluorobenzyl)-(2,5-dimethylpiperazine-1-yl)(3-hydroxyphenyl)methyl)phenyl)(4-methylpiperidine-1-yl)methanone dihydrochloride] | significantly improved | 2.2 | 2.0 | 2.4 | 2.2 | 5.0 | 4.8 | 5.0 | 5.2 | 1.5 | 1.6 | 1.6 | 1.7 | 1.9 | 1.8 | 1.9 | 1.4 | close to or slightly improved |  |  | Crystal form of insoluble solid sample [1]: invariability; Solubility [1]: 6.2 mg/mL |
